Source: patent US11046726B2, “Nucleotide analogues” (QIAGEN SCIENCES, LLC, priority 2015, dated 2021)

experiment: Cleavage experiments with a variety of cleavage agents, reaction mixtures analyzed by RP-HPLC (FIG. 77, 78A-78B); conditions: after 10 minutes of incubation with cleave reagent
Source text: In addition to these a variety of suitable cleaving agents can be used such as Bis(2-mercaptoethyl)sulfone (BMS) and N,N′-dimethyl-N,N′-bis(mercaptoacetyl)hydrazine (DMH) (Singh et al., Bioorg. Chem., 22, 109-115 (1994). Reactions can be further catalyzed by inclusion of selenols (Singh et al. Anal Biochem. 1995 Nov. 20; 232(1):86-91 [18]). Borohydrides, such as sodium borohydrides can also be used for this purpose (Stahl et al., Anal. Chem., 1957, 29 (1), pp 151 155 [19]) as well as ascorbic acid (Nardai et al., J. Biol. Chem. 276, 8825-8828 (2001)). In addition, enzymatic methods for cleavage of disulfide bonds ae also well known such as disulfide and thioreductase and can be used with compounds of the present invention (Holmgren et. al., Methods in Enzymology, Volume 252, 1995, Pages 199-208 [21]).

| SMILES | cleavage of linker and 3′-protective group by cleavage agent |
| --- | --- |
| O[C@H](CS)[C@H](O)CS (racemic) [DTT, dithiothreitol] | full cleavage of both linker and the 3′-protective groups |
| N[C@@H](CS)C(=O)O [L-cysteine] | full cleavage of both linker and the 3′-protective groups |
| NCCS [cysteamine] | full cleavage of both linker and the 3′-protective groups |
| OC(=S)CCC(O)=S [dithiosuccinic acid] | selective cleavage of 3′-O-protective group |
